Entries after “also recorded” stand apart in the source; their conditions may differ.
Experiments:
[1] = tested on: wild type Arabidopsis thaliana (Col); experiment: Chlorophyll content of leaves after phytohormone treatment; assay type: in vivo; conditions: wild type leaves at 25 DAG; 50 μM ABA or 50 μM MeJA in MES buffer, or 4.5 μM ethylene gas; 22° C., continuous light
Description: (§1) In order to measure the chlorophyll content, the respective sample leaves were boiled in 95% ethanol at 80° C., thereby extracting chlorophyll. The chlorophyll content was measured at absorbance of 648 nm and 664 nm, and expressed as chlorophyll concentration per fresh weight of leaves (Vermon et al., Anal. Chem., 32:1142–1150, 1960).
(§2) Further, in the present invention, a change in leaf longevity of the ore7 mutant according to treatment with phytohormones, such as ABA, MeJA and ethylene that are involved in senescence regulation was examined by measuring changes in photosynthesis activity and chlorophyll content. 12 independent leaves at 25 DAG were floated in 2 ml of MES buffer containing 50 μM ABA or 50 μM MeJA. Treatment with ethylene was carried out by culturing Arabidopsis thaliana in a glass box containing 4.5 μM ethylene gas. As a negative control group, MES buffer not containing ABA or MeJA was used. The treatments with phytohormones as described above were carried out for three days at 22° C. with continuous exposure to light. The chlorophyll content and the photosynthesis activity were measured in the same manner as described in Example 2.

[2] = tested on: wild type Arabidopsis thaliana (Col); experiment: Photosynthesis activity (Fv/Fm of PS II) of leaves after phytohormone treatment; assay type: in vivo; conditions: wild type leaves at 25 DAG; 50 μM ABA or 50 μM MeJA in MES buffer, or 4.5 μM ethylene gas; 22° C., continuous light
Description: (§3) In order to measure photosynthesis activity, a method of Oh et al. (Oh S. A. et al., Plant Mol. Biol., 30: 939, 1996), was used. First, leaves at the respective DAG were dark-treated for 15 minutes and measured for fluorescence of chlorophylls using Plant Efficiency Analyzer (Hansatech). The photosynthesis activity was expressed as photochemical efficiency of photosystem II (PS II) using a fluorescent property of chlorophylls. The photochemical efficiency was expressed as the ratio of maximum variable fluorescence (Fv) to maximum value of fluorescence (Fm) (Fv/Fm). As the ratio is increased, the photosynthesis activity improves.
as §2

[3] = tested on: longevity-extended mutant ore7; assay type: in vivo, Arabidopsis thaliana; conditions: ore7 mutant leaves at 25 DAG; 50 μM ABA or 50 μM MeJA in MES buffer, or 4.5 μM ethylene gas; 22° C., continuous light
Description: as §1, §2

[4] = tested on: longevity-extended mutant ore7; assay type: in vivo, Arabidopsis thaliana; conditions: ore7 mutant leaves at 25 DAG; 50 μM ABA or 50 μM MeJA in MES buffer, or 4.5 μM ethylene gas; 22° C., continuous light; remark: listed apart in the source
Description: as §3, §2

[5] = tested on: wild type Arabidopsis thaliana (Col); experiment: Northern blot analysis of SEN4 expression after phytohormone treatment; assay type: in vivo; conditions: wild type compared to ore7 mutant; 0, 3, 4 and 5 days after treatment

Structure (SMILES) | change in chlorophyll content [1] | change in photosynthesis activity [2] | reduction in chlorophyll content [3] | change in photosynthesis activity [4] | expression of SEN4 gene [5]
CC1=CC(=O)CC(C)(C)[C@@]1(O)/C=C/C(C)=C\C(=O)O [ABA, abscisic acid] | significantly reduced | significantly reduced; also recorded: rapidly decreased | became blunt | slight decrease | highly increased
CC/C=C\CC1C(=O)CCC1CC(=O)OC (stereo not drawn) [MeJA, methyl jasmonate] | significantly reduced | significantly reduced; also recorded: rapidly decreased | became blunt | slight decrease | highly increased
C=C [ethylene] | significantly reduced | significantly reduced; also recorded: rapidly decreased | became blunt | slight decrease | highly increased

Reference: patent publication US7060875B2, “Methods for delaying leaf senescence using the ORE7 gene” (Postech Foundation, priority 2001, dated 2006)
